# Like-named read-outs stand apart in the source and are kept apart here.
# Biological target: T1, AAK1 (GST-Xa-hAAK1) (Homo sapiens, UniProt Q2M2I8)
# T1 construct: made in house
# Test: AAK1 Kinase Assay (Caliper LabChip, fluoresceinated peptide substrate)
# Assay type: biochemical
# Details: AAK1 functional potency
# Protocol: The assays were performed in U-bottom 384-well plates. The final assay volume was 30 μl prepared from 15 μl additions of enzyme and substrates (fluoresceinated peptide (5-FAM)-Aha-KEEQSQITSQVTGQIGWR-NH2 and ATP) and test compounds in assay buffer (10 mM Tris-HCL pH 7.4, 10 mM MgCl2, 0.01% Tween-20 and 1.0 mM DTT). The reactions were initiated by the combination of bacterially expressed, GST-Xa-hAAK1 with substrates and test compounds. The reactions were incubated at room temperature for 3 hours and terminated by adding 60 μl of 35 mM EDTA buffer to each sample. The reactions were analyzed on the Caliper LabChip 3000 (Caliper, Hopkinton, Mass.) by electrophoretic separation of the fluorescent substrate and phosphorylated product. Inhibition data were calculated by comparison to EDTA quenched control reactions for 100% inhibition and vehicle-only reactions for 0% inhibition. The final concentration of reagents in the assays are ATP, 22 μM; (5-FAM)-Aha-KEEQSQITSQVTGQIGWR-NH2, 1.5 μM; GST-Xa-hAAK1, 3.5 nM; and DMSO, 1.6%. Dose response curves were generated to determine the concentration required inhibiting 50% of kinase activity (IC50). Compounds were dissolved at 10 mM in dimethylsulfoxide (DMSO) and evaluated at eleven concentrations. IC50 values were derived by non-linear regression analysis.
# [1] = class symbols, read-out: IC50 (nM), functional potency as IC50 ranges
# [2] = numeric values, read-out: IC50 (nM), functional potency
# T1 sequence (Q2M2I8 whole entry): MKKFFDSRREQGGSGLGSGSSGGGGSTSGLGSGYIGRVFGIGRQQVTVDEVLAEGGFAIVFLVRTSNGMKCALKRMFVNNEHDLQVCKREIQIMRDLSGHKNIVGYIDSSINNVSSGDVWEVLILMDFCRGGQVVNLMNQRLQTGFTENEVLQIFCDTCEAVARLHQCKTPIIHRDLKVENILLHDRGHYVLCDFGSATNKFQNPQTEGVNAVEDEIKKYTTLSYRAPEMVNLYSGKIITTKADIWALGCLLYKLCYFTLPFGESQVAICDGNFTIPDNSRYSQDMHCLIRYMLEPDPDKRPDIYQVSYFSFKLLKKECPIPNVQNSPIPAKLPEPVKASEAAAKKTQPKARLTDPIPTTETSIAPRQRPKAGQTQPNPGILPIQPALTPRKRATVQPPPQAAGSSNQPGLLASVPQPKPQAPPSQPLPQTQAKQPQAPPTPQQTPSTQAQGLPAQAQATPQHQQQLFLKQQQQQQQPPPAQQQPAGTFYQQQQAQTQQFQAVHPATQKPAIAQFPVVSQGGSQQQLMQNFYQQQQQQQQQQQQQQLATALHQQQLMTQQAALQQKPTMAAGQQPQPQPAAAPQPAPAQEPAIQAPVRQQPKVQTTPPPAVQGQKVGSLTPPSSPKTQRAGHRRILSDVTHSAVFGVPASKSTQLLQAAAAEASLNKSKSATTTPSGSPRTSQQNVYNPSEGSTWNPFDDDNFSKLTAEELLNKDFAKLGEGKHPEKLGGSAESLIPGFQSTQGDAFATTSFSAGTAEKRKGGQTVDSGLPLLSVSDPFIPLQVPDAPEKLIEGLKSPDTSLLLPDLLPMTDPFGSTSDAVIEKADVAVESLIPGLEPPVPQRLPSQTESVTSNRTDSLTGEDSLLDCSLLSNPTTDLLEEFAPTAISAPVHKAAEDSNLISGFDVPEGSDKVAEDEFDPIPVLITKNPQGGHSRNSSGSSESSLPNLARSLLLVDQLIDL
Structure (SMILES),IC50 [1],IC50 [2]
"CC(C)CC(N)c1ccc2cc(-c3cc(N)nc4ccccc34)ccc2n1 (single isomer, unassigned) [Example 48, 2′-(1-amino-3-methylbutyl)-4,6′-biquinolin-2-amine]",101 to 2500 nM,
"CC(=O)Nc1cc(-c2ccc3nc(C(N)CC(C)C)ccc3c2)ccn1 (single isomer, unassigned) [Example 34, N-(4-(2-(1-amino-3-methylbutyl)quinolin-6-yl)pyridin-2-yl)acetamide]",1 to 10 nM,
"CC(C)CC(N)c1ccc2cc(-c3ccnc(NC(=O)c4cccc(F)c4)c3)ccc2n1 (stereo not shown) [Example 35, N-(4-(2-(1-amino-3-methylbutyl)quinolin-6-yl)pyridin-2-yl)-3-fluorobenzamide]",11 to 100 nM,
"CC(C)CC(N)c1ccc2cc(-c3cc(N)nc4ccccc34)ccc2n1 (single isomer, unassigned) [Example 49, 2′-(1-amino-3-methylbutyl)-4,6′-biquinolin-2-amine]",101 to 2500 nM,
"CC(C)CC(N)c1ccc2cc(-c3ccnc4[nH]ccc34)ccc2n1 (stereo not shown) [Example 25, 1-(6-(1H-pyrrolo[2,3-b]pyridin-4-yl)quinolin-2-yl)-3-methylbutan-1-amine]",1 to 10 nM,
"CC(=O)Nc1cc(-c2ccc3nc(C(O)CC(C)C)ccc3c2)ccn1 (stereo not shown) [Example 45, N-(4-(2-(1-hydroxy-3-methylbutyl)quinolin-6-yl)pyridin-2-yl)acetamide]",11 to 100 nM,
"CC(C)CC(N)c1ccc2cc(-c3ccnc4ccccc34)ccc2n1 (stereo not shown) [Example 26, 1-([4,6′-biquinolin]-2′-yl)-3-methylbutan-1-amine]",11 to 100 nM,
"COc1cnccc1-c1ccc2nc(C(N)CC(C)C)ccc2c1 (single isomer, unassigned; (+)) [Example 22, (+)-1-(6-(3-methoxypyridin-4-yl)quinolin-2-yl)-3-methylbutan-1-amine]",101 to 2500 nM,
"CC(=O)Nc1cc(-c2ccc3nc(C(N)CC(C)C)ccc3c2)c2ccccc2n1 (single isomer, unassigned) [Example 46, N-(2′-(1-amino-3-methylbutyl)-4,6′-biquinolin-2-yl)acetamide]",101 to 2500 nM,
CC(=O)Nc1cc(-c2ccc3nc(C(N)C4CCCCC4)ccc3c2)ccn1 (stereo not shown) [Example 36],1 to 10 nM,
"COc1cc2nc(C(N)CC(C)C)cc(C#N)c2cc1-c1cnco1 (single isomer, unassigned; (-)) [Example 12, (−)-2-(1-Amino-3-methylbutyl)-7-methoxy-6-(oxazol-5-yl)quinoline-4-carbonitrile]",11 to 100 nM,
"CC(=O)Nc1cc(-c2ccc3nc(C(N)CC(C)C)ccc3c2)ccn1 (single isomer, unassigned) [Example 33, N-(4-(2-(1-amino-3-methylbutyl)quinolin-6-yl)pyridin-2-yl)acetamide]",1 to 10 nM,
"CC(C)CC(N)c1ccc2cc(-c3ccnc(NC(=O)c4ccc(C(F)(F)F)cc4)c3)ccc2n1 (stereo not shown) [Example 42, N-(4-(2-(1-amino-3-methylbutyl)quinolin-6-yl)pyridin-2-yl)-4-(trifluoromethyl)benzamide]",11 to 100 nM,
"CC(C)CC(N)c1ccc2cc(-c3ccnc(N(C)C)n3)ccc2n1 (stereo not shown) [Example 28, 4-(2-(1-amino-3-methylbutyl)quinolin-6-yl)-N,N-dimethylpyrimidin-2-amine]",11 to 100 nM,
"COc1cc2nc(C(N)CC(C)C)cc(C#N)c2cc1-c1cnco1 (single isomer, unassigned; (+)) [Example 13, (+)-2-(1-Amino-3-methylbutyl)-7-methoxy-6-(oxazol-5-yl)quinoline-4-carbonitrile]",,4.1 nM
"CC(=O)Nc1cc(-c2ccc3nc(C(N)CC(C)C)ccc3c2)c2ccccc2n1 (single isomer, unassigned) [Example 47, N-(2′-(1-amino-3-methylbutyl)-4,6′-biquinolin-2-yl)acetamide]",,1200 nM

# The remaining lines, values ahead:
IC50 [1],IC50 [2],Structure (SMILES)
101 to 2500 nM,,"CC(C)Cc1cnc2ccc(-c3ccncc3)cc2c1O [Example 15, 3-Isobutyl-6-(pyridin-4-yl)quinolin-4-ol]"
,12 nM,"CC(C)C[C@@H](N)c1cc(C#N)c2cc(-c3ccncc3)ccc2n1 (single isomer, unassigned) [Example 7]"
11 to 100 nM,,"CC(C)CCc1cc(C#N)c2cc(-c3ccncc3)ccc2n1 [Example 6, 2-Isopentyl-6-(pyridin-4-yl)quinoline-4-carbonitrile]"
1 to 10 nM,,"CC(C)CC(N)c1cc(-c2nnn[nH]2)c2cc(-c3ccncc3)ccc2n1 (stereo not shown) [Example 37, 3-methyl-1-(6-(pyridin-4-yl)-4-(1H-tetrazol-5-yl)quinolin-2-yl)butan-1-amine]"
101 to 2500 nM,,"CC(C)CC(OCC(F)(F)F)c1ccc2cc(-c3ccncc3)ccc2n1 (stereo not shown) [Example 32, 2-(3-methyl-1-(2,2,2-trifluoroethoxy)butyl)-6-(pyridin-4-yl)quinoline]"
11 to 100 nM,,"CCc1cc(C(N)CC(C)C)nc2ccc(-c3ccncc3)cc12 (racemic) [Example 43, 1-(4-ethyl-6-(pyridin-4-yl)quinolin-2-yl)-3-methylbutan-1-amine]"
101 to 2500 nM,,"CC(C)CCc1nc2ccc(-c3ccncc3)cc2cc1C(N)=O [Example 17, 2-Isopentyl-6-(pyridin-4-yl)quinoline-3-carboxamide]"
,54 nM,"NC(=O)c1cc(C(N)C2CCCCC2)nc2ccc(-c3ccncc3)cc12 (single isomer, unassigned) [Example 39, 2-(amino(cyclohexyl)methyl)-6-(pyridin-4-yl)quinoline-4-carboxamide]"
11 to 100 nM,,"CC(C)CCc1cc(Br)c2cc(-c3ccncc3)ccc2n1 [Example 3, 4-Bromo-2-isopentyl-6-(pyridin-4-yl)quinoline]"
101 to 2500 nM,,COc1cc(-c2ccc3nc(C(N)CC(C)C)ccc3c2)ccn1 (stereo not shown) [Example 24]
101 to 2500 nM,,"Cc1nc2ccc(-c3ccncc3)cc2c(O)c1CC(C)C [Example 14, 3-Isobutyl-2-methyl-6-(pyridin-4-yl)quinolin-4-ol]"
11 to 100 nM,,"CC(C)CCc1cc(O)c2cc(-c3ccncc3)ccc2n1 [Example 1, 2-Isopentyl-6-(pyridin-4-yl)quinolin-4-ol]"
101 to 2500 nM,,"COc1cnccc1-c1ccc2nc(C(N)CC(C)C)ccc2c1 (single isomer, unassigned; (-)) [Example 23, (−)-1-(6-(3-methoxypyridin-4-yl)quinolin-2-yl)-3-methylbutan-1-amine]"
11 to 100 nM,,"COc1cc2nc(CCC(C)C)cc(C#N)c2cc1-c1cnco1 [Example 11, 2-Isopentyl-7-methoxy-6-(oxazol-5-yl)quinoline-4-carbonitrile]"
11 to 100 nM,,"CC(C)CC(N)c1cc(C#N)c2cc(-c3ccncc3)cc(F)c2n1 (stereo not shown) [Example 44, 2-(1-amino-3-methylbutyl)-8-fluoro-6-(pyridin-4-yl)quinoline-4-carbonitrile]"
11 to 100 nM,,"CC(C)CC(N)c1ccc2cc(-c3ccncc3)ccc2n1 (single isomer, unassigned; (-)) [Example 20, (−)-3-methyl-1-(6-(pyridin-4-yl)quinolin-2-yl)butan-1-amine]"
101 to 2500 nM,,"N#Cc1cc(C(N)C2CCCCC2)nc2ccc(-c3ccncc3)cc12 (stereo not shown) [Example 41, 2-(amino(cyclohexyl)methyl)-6-(pyridin-4-yl)quinoline-4-carbonitrile]"
101 to 2500 nM,,"NC(=O)c1cc(C(N)C2CCCCC2)nc2ccc(-c3ccncc3)cc12 (single isomer, unassigned) [Example 40, 2-(amino(cyclohexyl)methyl)-6-(pyridin-4-yl)quinoline-4-carboxamide]"

# Source: patent US9932320B2 (BRISTOL-MYERS SQUIBB COMPANY, priority 2014, dated 2018)
